{"source": "paper PMC7692329", "about": "“Inhibitory Effect of AB-PINACA, Indazole Carboxamide Synthetic Cannabinoid, on Human Major Drug-Metabolizing Enzymes and Transporters” (Pharmaceutics, 2020)", "key": {"UGT1A3": {"target": "UGT1A3 (Homo sapiens, UniProt P35503)", "sequence (P35503 29-534)": "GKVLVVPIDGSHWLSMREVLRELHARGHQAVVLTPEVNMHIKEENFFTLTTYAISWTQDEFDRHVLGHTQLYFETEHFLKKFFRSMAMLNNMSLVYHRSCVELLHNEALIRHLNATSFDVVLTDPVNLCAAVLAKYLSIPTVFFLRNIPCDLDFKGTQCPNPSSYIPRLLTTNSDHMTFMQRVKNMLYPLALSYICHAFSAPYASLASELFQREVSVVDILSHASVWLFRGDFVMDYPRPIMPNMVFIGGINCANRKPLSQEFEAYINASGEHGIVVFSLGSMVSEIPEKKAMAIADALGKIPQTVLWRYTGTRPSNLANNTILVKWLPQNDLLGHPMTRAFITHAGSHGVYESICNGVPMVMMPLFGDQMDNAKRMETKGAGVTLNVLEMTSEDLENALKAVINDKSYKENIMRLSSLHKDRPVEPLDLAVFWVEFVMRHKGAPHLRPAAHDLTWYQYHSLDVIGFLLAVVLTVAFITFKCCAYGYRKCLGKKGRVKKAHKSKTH", "experiment": "UGT1A3 chenodeoxycholic acid 24-acyl-β-glucuronidation inhibition in ultrapooled human liver microsomes"}, "CYP3A4": {"target": "CYP3A4 (Homo sapiens, UniProt P08684)", "sequence (P08684 whole entry)": "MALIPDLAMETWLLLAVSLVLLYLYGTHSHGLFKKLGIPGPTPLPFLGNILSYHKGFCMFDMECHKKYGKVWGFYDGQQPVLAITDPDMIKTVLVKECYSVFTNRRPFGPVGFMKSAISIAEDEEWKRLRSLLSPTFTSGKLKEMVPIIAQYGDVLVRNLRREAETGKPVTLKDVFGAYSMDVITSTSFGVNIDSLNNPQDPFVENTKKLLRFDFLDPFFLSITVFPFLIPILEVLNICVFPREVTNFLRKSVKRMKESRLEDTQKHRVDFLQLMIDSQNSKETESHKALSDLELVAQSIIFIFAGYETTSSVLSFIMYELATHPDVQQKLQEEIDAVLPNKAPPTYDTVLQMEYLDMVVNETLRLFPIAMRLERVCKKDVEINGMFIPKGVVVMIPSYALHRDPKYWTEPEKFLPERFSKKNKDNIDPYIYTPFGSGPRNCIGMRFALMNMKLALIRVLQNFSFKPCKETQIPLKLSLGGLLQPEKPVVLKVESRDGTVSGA", "experiment": "CYP3A4 midazolam 1'-hydroxylase inhibition and inactivation kinetics in ultrapooled human liver microsomes", "details": "for IC50: CYP3A4 midazolam 1'-hydroxylase, ultrapooled human liver microsomes"}, "OAT3": {"target": "T1, OAT3 (Homo sapiens, UniProt Q8TCC7)", "T1 construct": "host or cells: HEK293", "T1 sequence (Q8TCC7 1-542)": "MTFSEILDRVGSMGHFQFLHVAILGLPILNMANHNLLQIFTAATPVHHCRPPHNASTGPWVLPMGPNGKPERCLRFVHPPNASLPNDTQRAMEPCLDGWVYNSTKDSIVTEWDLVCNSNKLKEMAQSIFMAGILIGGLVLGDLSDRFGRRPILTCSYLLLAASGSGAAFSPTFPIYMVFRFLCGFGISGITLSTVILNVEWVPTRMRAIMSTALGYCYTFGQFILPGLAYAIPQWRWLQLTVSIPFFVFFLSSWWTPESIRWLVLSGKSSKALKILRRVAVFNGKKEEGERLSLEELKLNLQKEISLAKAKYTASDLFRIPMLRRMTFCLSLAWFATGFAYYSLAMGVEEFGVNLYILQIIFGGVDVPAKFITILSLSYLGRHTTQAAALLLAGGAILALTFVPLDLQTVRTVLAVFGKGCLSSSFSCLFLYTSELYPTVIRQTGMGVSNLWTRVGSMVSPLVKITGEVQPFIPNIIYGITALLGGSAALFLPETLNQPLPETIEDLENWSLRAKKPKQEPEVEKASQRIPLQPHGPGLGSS", "experiment": "OAT3-mediated estrone-3-sulfate uptake in HEK293-OAT3 cells", "type": "in vitro ADME"}, "OCT2": {"target": "T2, OCT2 (Homo sapiens, UniProt O15244)", "T2 construct": "host or cells: HEK293", "T2 sequence (O15244 whole entry)": "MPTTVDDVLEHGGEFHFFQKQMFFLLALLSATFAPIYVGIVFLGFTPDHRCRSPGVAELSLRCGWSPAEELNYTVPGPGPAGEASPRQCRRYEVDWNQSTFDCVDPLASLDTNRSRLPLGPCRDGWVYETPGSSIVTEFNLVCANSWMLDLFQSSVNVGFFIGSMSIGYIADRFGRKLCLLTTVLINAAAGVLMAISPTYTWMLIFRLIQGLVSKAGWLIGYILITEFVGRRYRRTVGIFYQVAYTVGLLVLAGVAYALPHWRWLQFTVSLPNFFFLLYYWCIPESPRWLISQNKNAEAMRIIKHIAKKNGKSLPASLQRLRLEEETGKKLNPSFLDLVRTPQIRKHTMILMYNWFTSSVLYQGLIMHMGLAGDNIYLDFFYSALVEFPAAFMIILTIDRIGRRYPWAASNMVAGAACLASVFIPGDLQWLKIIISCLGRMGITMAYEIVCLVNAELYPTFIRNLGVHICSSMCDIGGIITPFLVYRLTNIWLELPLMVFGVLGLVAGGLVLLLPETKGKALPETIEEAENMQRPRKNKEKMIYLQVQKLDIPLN", "experiment": "OCT2-mediated methyl-4-phenylpyridinium uptake in HEK293-OCT2 cells", "type": "in vitro ADME"}, "BCRP": {"target": "T3, BCRP (Homo sapiens, UniProt Q9UNQ0)", "T3 construct": "host or cells: LLC-PK1", "T3 sequence (Q9UNQ0 whole entry)": "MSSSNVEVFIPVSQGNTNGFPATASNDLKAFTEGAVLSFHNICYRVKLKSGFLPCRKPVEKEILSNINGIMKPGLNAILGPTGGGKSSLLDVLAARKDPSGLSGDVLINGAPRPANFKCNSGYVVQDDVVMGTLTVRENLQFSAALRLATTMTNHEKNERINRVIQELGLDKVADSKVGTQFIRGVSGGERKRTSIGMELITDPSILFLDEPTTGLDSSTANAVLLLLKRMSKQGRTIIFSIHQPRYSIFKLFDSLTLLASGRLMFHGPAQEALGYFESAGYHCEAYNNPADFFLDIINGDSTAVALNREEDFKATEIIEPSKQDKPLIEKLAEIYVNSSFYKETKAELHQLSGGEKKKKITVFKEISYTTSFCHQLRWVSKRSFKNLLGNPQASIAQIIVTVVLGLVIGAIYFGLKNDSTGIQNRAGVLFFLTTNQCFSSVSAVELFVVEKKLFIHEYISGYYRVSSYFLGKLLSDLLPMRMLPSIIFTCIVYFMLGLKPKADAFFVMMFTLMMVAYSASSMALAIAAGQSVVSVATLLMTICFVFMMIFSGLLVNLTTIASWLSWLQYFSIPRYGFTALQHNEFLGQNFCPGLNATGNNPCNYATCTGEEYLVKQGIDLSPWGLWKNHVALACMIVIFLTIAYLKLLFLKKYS", "experiment": "BCRP-mediated B to A transport of estrone-3-sulfate in LLC-PK1-BCRP cells", "type": "in vitro ADME"}, "CYP2B6": {"target": "CYP2B6 (Homo sapiens, UniProt P20813)", "sequence (P20813 whole entry)": "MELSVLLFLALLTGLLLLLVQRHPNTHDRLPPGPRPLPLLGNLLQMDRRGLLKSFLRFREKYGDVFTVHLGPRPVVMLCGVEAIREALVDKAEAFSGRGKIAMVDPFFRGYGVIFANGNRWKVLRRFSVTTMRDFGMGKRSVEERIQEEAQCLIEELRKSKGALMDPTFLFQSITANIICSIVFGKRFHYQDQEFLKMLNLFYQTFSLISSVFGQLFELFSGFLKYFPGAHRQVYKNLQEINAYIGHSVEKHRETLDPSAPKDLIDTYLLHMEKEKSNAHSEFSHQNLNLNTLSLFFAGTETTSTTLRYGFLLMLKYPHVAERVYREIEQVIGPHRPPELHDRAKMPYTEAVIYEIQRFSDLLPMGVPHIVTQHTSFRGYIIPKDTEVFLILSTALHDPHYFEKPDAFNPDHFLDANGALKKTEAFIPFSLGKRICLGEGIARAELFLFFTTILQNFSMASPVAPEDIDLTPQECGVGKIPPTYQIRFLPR", "experiment": "CYP2B6 bupropion hydroxylase inhibition in ultrapooled human liver microsomes"}, "OATP1B3": {"target": "T4, OATP1B3 (Homo sapiens, UniProt Q9NPD5)", "T4 construct": "host or cells: HEK293", "T4 sequence (Q9NPD5 whole entry)": "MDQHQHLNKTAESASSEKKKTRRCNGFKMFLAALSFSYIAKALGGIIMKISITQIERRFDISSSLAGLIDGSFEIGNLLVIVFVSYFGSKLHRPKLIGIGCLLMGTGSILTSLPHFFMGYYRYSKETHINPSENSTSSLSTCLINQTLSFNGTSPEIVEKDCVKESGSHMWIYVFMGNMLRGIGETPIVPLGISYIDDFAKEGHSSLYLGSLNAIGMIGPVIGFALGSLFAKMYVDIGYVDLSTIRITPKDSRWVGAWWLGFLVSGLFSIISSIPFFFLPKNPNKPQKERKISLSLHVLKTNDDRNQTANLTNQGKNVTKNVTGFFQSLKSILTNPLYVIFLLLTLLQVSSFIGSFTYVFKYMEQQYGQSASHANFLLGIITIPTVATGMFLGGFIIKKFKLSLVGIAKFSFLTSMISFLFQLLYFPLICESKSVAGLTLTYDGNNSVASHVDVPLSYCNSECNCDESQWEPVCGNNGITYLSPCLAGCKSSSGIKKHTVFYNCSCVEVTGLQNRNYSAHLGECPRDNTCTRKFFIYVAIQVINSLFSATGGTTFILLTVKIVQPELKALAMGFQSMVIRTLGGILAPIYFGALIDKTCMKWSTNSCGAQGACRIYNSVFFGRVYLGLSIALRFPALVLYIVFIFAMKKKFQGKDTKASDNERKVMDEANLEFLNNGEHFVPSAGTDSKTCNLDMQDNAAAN", "experiment": "OATP1B3-mediated estradiol-17β-D-glucuronide uptake in HEK293-OATP1B3 cells", "type": "in vitro ADME"}, "[1]": {"details": "human, liver microsomes, pH 7.4, probe midazolam"}}, "note": "Entries after “also recorded” stand apart in the source; their conditions may differ. Where two headings read alike, the source gives them in different places."}
{"molecule": "CCCCCn1nc(C(=O)N[C@H](C(N)=O)C(C)C)c2ccccc21", "note": "[AB-PINACA, N-[(2S)-1-amino-3-methyl-1-oxobutan-2-yl]-1-pentyl-1H-indazole-3-carboxamide]", "values": [{"measurement": "IC50", "setting": "UGT1A3", "value": 84.1, "unit": "µM"}, {"measurement": "Ki", "setting": "CYP3A4", "value": 17.6, "unit": "µM"}, {"measurement": "IC50", "setting": "CYP3A4; IC50 With NADPH Preincubation, 30-min preincubation with NADPH", "value": 24.4, "unit": "µM"}, {"measurement": "IC50", "setting": "CYP3A4; IC50 Without NADPH Preincubation, without NADPH preincubation", "value": 66.4, "unit": "µM"}, {"measurement": "IC50 shift at 15 min", "setting": "CYP3A4; [1]", "value": 2.7}, {"measurement": "kinact", "setting": "CYP3A4; [1]", "value": 0.000674, "unit": "s⁻¹"}, {"measurement": "Mode of Inhibition, CYP3A4", "setting": "CYP3A4; midazolam 1'-hydroxylation, human liver microsomes", "value": "time-dependent inhibition"}, {"measurement": "IC50", "setting": "OAT3", "value": 11.8, "unit": "µM"}, {"measurement": "Ki", "setting": "OAT3", "value": 8.3, "unit": "µM"}, {"measurement": "Mode of Inhibition, OAT3", "setting": "OAT3; estrone-3-sulfate uptake, HEK293-OAT3 cells", "value": "competitively inhibited; also recorded: competitive inhibition"}, {"measurement": "IC50", "setting": "OCT2", "value": "> 250", "unit": "µM"}, {"measurement": "IC50", "setting": "BCRP", "value": "> 100", "unit": "µM"}, {"measurement": "IC50", "setting": "CYP2B6", "value": "> 100", "unit": "µM"}, {"measurement": "IC50", "setting": "CYP2B6; read-out: IC50 With NADPH Preincubation, CYP2B6 bupropion hydroxylase, ultrapooled human liver microsomes, 30-min preincubation with NADPH", "value": "> 100", "unit": "µM"}, {"measurement": "IC50", "setting": "OATP1B3", "value": "> 250", "unit": "µM"}]}
